Legend:
[1] = Enzymatic cleavage of prodrugs in vitro, rat plasma; format: in vitro ADME; details: substrate 2.0 μM, 37° C.
Experimental: (§1) The stability of propofol prodrugs were evaluated in one or more in vitro systems using a variety of tissue preparations following methods known in the art. Tissues were obtained from commercial sources (e.g., Pel-Freez Biologicals, Rogers, Ark., or GenTest Corporation, Woburn, Mass.). Experimental conditions used for the in vitro studies are described in Table 1 below. Each preparation was incubated with test compound at 37° C. for one hour. Aliquots (50 μL) were removed at 0, 30, and 60 min and quenched with 0.1% trifluoroacetic acid in acetonitrile. Samples were then centrifuged and analyzed by LC/MS/MS (see Examples 59 and 60 below for method details). Stability of drug conjugates towards specific enzymes (e.g., peptidases, etc.) were also assessed in vitro by incubation with the purified enzyme: […]

[2] = Enzymatic cleavage of prodrugs in vitro, human plasma; format: in vitro ADME; details: substrate 2.0 μM, 37° C.
Experimental: as §1

[3] = Enzymatic cleavage of prodrugs in vitro, rat liver S9; format: in vitro ADME; details: Rat Liver S9 (0.5 mg/mL), substrate 2.0 μM, NADPH, 37° C.
Experimental: as §1

[4] = Enzymatic cleavage of prodrugs in vitro, human liver S9; format: in vitro ADME; details: Human Liver S9 (0.5 mg/mL), substrate 2.0 μM, NADPH, 37° C.
Experimental: as §1

[5] = Caco-2 homogenate S9 stability; format: in vitro ADME; details: Caco-2 S9 (0.5 mg protein per mL), prodrug 5 μM, 37° C.
Experimental: (§2) The stability of propofol prodrugs were evaluated in one or more in vitro systems using a variety of tissue preparations following methods known in the art. Tissues were obtained from commercial sources (e.g., Pel-Freez Biologicals, Rogers, Ark., or GenTest Corporation, Woburn, Mass.). Experimental conditions used for the in vitro studies are described in Table 1 below. Each preparation was incubated with test compound at 37° C. for one hour. Aliquots (50 μL) were removed at 0, 30, and 60 min and quenched with 0.1% trifluoroacetic acid in acetonitrile. Samples were then centrifuged and analyzed by LC/MS/MS (see Examples 59 and 60 below for method details). Stability of drug conjugates towards specific enzymes (e.g., peptidases, etc.) were also assessed in vitro by incubation with the purified enzyme:
Caco-2 Homogenate S9 Stability: Caco-2 cells were grown for 21 days prior to harvesting. Culture medium was removed and cell monolayers were rinsed and scraped off into ice-cold 10 mM sodium phosphate/0.15 M potassium chloride, pH 7.4. Cells were lysed by sonication at 4° C. using a probe sonicator. Lysed cells were then transferred into 1.5 mL centrifuge vials and centrifuged at 9000 g for 20 min at 4° C. The resulting supernatant (Caco-2 cell homogenate S9 fraction) was aliquoted into 0.5 mL vials and stored at −80° C. until used.
For stability studies, prodrug (5 μM) was incubated in Caco-2 homogenate S9 fraction (0.5 mg protein per mL) for 60 min at 37° C. Concentrations of intact prodrug and released propofol were determined at zero time and 60 minutes using LC/MS/MS.

[6] = test system: pancreatin; assay: Pancreatin stability; format: in vitro ADME, porcine; details: 1% (w/v) pancreatin, pH 7.5, conjugate 5 μM, 37° C.
Experimental: as §2
Pancreatin Stability: Stability studies were conducted by incubating conjugate (5 μM) with 1% (w/v) pancreatin (Sigma, P-1625, from porcine pancreas) in 0.025 M Tris buffer containing 0.5 M NaCl (pH 7.5) at 37° C. for 60 min. The reaction was stopped by addition of 2 volumes of methanol. After centrifugation at 14,000 rpm for 10 min, the supernatant was removed and analyzed by LC/MS/MS.

[7] = in vivo; details: male, Sprague-Dawley, rat, plasma, oral, 25 mg per kg body weight
Experimental: Propofol was administered as an intravenous bolus injection or by oral gavage to groups of four to six adult male Sprague-Dawley rats (weight approx 250 g) as solutions in PEG400, at doses of 10 mg per kg body weight (I.V.) or 25 mg per kg body weight (oral). Animals were fasted overnight before the study and for 4 hours post-dosing. Blood samples (1.0 mL) were obtained via a jugular vein cannula at intervals over 24 hours after oral dosing. Blood was quenched immediately using acetonitrile with 1% formic acid and then was frozen at −80° C. until analyzed.
Concentrations of propofol in plasma were determined using an API 4000 LC/MS/MS instrument equipped with an Agilent 1100 binary pump and an Agilent autosampler. The column was a Phenomenex Hydro-RP 4.6*50 mm column operating at room temperature. The mobile phases were 2 mM aqueous ammonium acetate (A) and 95% acetonitrile with 5 mM ammonium acetate (B). The gradient condition was: 5% B for 1 min, increasing to 90% B in 2.5 min and maintained for 2 min. 20 μL of sample was injected. A Turbo-IonSpray source was used, and propofol was detected in negative ion mode in Q1 at m/z=177. The peaks were integrated using Analyst 1.2 quantitation software.

[8] = rats; oral dosing; cited from earlier work

Compound | % of Propofol Released from Propofol Prodrugs after 60 min. [1] [%] | % of Propofol Released from Propofol Prodrugs after 60 min. [2] [%] | % of Propofol Released from Propofol Prodrugs after 60 min. [3] [%] | % of Propofol Released from Propofol Prodrugs after 60 min. [4] [%] | % of Propofol Released from Propofol Prodrugs after 60 min. [5] [%] | % of Propofol Released from Propofol Prodrugs after 60 min. [6] [%] | bioavailability [7] [%] | administered drug undergoing first pass metabolism [8]
CC(C)c1cccc(C(C)C)c1OC(=O)CC[C@H](N)C(=O)N[C@@H](C)C(=O)O [Compound 138, H-Glu(OPropofol)-Ala-OH] | 50 | 44 | 0 | 0 | 3 | 9 | – | –
CC(C)c1cccc(C(C)C)c1OC(=O)OC[C@H](NC(=O)[C@H](C)N)C(=O)O [Compound 161, H-Ala-Ser(β-OC(O)OPropofol)-OH] | 30 | 2 | 8 | 14 | 20 | 8 | – | –
CC(C)c1cccc(C(C)C)c1OC(=O)CC[C@H](NC(=O)[C@@H](N)CC(N)=O)C(=O)O [Compound 124, H-Asn-Glu(OPropofol)-OH] | 65 | 2 | 0 | 0 | 0 | 4 | – | –
H-Asp-Asp(OCH2OPropofol)-OH [Compound 220] | – | 1 | – | 0 | 49 | 6 | – | –
CSCC[C@H](N)C(=O)N[C@@H](CC(=O)Oc1c(C(C)C)cccc1C(C)C)C(=O)O [Compound 121, H-Met-Asp(OPropofol)-OH] | 7 | 3 | 0 | 0 | 0 | 0 | – | –
CC(C)c1cccc(C(C)C)c1OC(=O)C[C@H](NC(=O)[C@@H](N)Cc1ccc(O)cc1)C(=O)O [Compound 122, H-Tyr-Asp(OPropofol)-OH] | 2 | 0 | 9 | 6 | 0 | 10 | – | –
CC(C)c1cccc(C(C)C)c1O [Propofol, 2,6-diisopropylphenol] | – | – | – | – | – | – | 0.23 | approximately 90%
H-Gly-Tyr-OPropofol [Compound 192] | 15 | 15 | 60 | 60 | 41 | 0 | – | –
CC(C)c1cccc(C(C)C)c1OC(=O)C[C@H](NC(=O)[C@H](C)N)C(=O)O [Compound 107, H-Ala-Asp(OPropofol)-OH] | 3 | 1 | 6 | 5 | 4 | 7 | – | –

Source: US7220875B2, “Amino acid derived prodrugs of propofol, compositions and uses thereof” (priority 2003, dated 2007)
